In brackets after ≈: the same amount, converted by molar mass. Blank lines part the entries; values can stand above or below the compound they belong to. Where no end group is shown, it is not given here.
What was measured:
[1] = DPPH• radical scavenging assay; details: relative concentration to reduce 50% of initial DPPH•; mean ± SD, n = 3
Experimental: The free radical-scavenger activity was determined by the DPPH^• assay, according to Oliveira et al.. Briefly, in a 96 well-plate, 19.4 µL of aqueous solutions of the peptides at different concentrations (100–0.1 µg/mL) was added per well. Then, 175 µL of an ethanolic solution of 2,2-diphenyl-1-picrylhydrazyl radical (DPPH^•, Merck) was added to the wells ([…]—90 µM for final concentration in the experiment). The absorbance was read at 515 nm (Multiskan SkyHigh multiplate reader, Thermo Fisher Scientific) in kinetic mode for 60 min and at room temperature. The percentage of remaining DPPH^• was plotted against the peptides’ concentrations and the amount of test compounds necessary to decrease by 50% the initial concentration of DPPH (RIC50) was calculated (GraphPad Prism 9.4.0, GraphPad Software). Quercetin (100–0.1 µg/mL in ethanol) was used as a positive control.
The DPPH^• radical scavenging activity determines the ability of an antiradical compound to neutralize DPPH^• radical to its reduced form (DPPH-H) and is usually expressed as the concentration of the compound required to reduce the DPPH^• radical by 50% (IC₅₀). […]

[2] = system: O2•− production in LPS-stimulated RAW 264.7 cells; assay: Intracellular superoxide production (NBT assay) in LPS-stimulated macrophages; assay type: cell-based, murine; details: at 10 µg/mL
Experimental: Considering the link between oxidative stress and inflammation, both the antioxidant and the anti-inflammatory potential of the selected peptides was determined in cellulo using macrophage-like cells (RAW 264.7 cell line) stimulated with lypopolysaccharides (LPSs) from Escherichia coli. […] In other words, RAW 264.7 cells are activated by foreign stimuli like, e.g., exposure to LPSs. This activation is initiated by the binding of LPSs to cell membrane receptors, which triggers signaling pathways that will result in the generation of proinflammatory mediators (e.g., nitric oxide) and cytokines such as interleukin (IL)-6, IL-8, tumor necrosis factor-alpha (TNF)-α [41, 42]. Since proinflammatory mediators are held in several metabolic pathways, including the production of reactive oxygen species (ROS), e.g., the radical-anion superoxide (O2^•−), LPS exposure also leads to oxidative stress. […]
The potential inhibitory effect of the peptides on superoxide radical (O2^−) by RAW 264.7 cells activated by LPS (1 µg/mL) was evaluated according to Mitra et al. with some modifications. […] The absorbance was measured in a microplate reader at a dual wavelength of 620/700 nm. […] The experiments were performed in three independent assays and the results were expressed as a percentage of O2^- production. […]

[3] = in vitro; assay type: cell-based, murine; details: for IC50 at 24 h: mouse
Experimental: RAW 264.7 (ATCC TIB-71) murine macrophage-like cells were cultured in high-glucose Dulbecco’s modified Eagle’s medium (DMEM, Sigma-Aldrich) supplemented with 10% fetal bovine serum (FBS, Corning) and 1% penicillin/streptomycin (Corning). Cells were grown under standard culture conditions in a 5% CO2 incubator at 37 °C (MCO-170AC incubator; PHC Corporation, Tokyo, Japan), and were sub-cultured every two or three days when it was noticed that the cells had reached around 80% confluence. The assays were performed in cell passages from passages 9 to 21 to avoid phenotypic and genetic instability. Unless otherwise stated, all treatments were carried out with DMEM supplemented with 1% penicillin/streptomycin only (serum-free conditions). The cytotoxicity of the peptides towards RAW 264.7 cells was evaluated using the colorimetric 3-(4,5-dimethylthiazol-2-yl)-2,5-diphenyl tetrazolium bromide (MTT) assay. The assay was performed according to Mosmann, with a few modifications. Briefly, cells were seeded in a 96-well plate at a density of 2.5 × 10^3 cells per well and incubated for 24 h (5% CO2, 37 °C). After the incubation period, the medium was removed and replaced with different concentrations of the peptides’ aqueous solutions diluted in fresh FBS-free DMEM to the final concentrations of 1–0.005 mg/mL in each well. Following another 24 h incubation period, 10 µL of a 5 mg/mL stock solution of 3-(4,5-Dimethylthiazol-2-yl)-2,5-diphenyltetrazolium bromide (MTT; Alfa Aesar) was added to each well, and the plate was incubated for 3 h (5% CO2, 37 °C). Dimethyl sulfoxide (DMSO, Thermo Fisher Scientific) was used to dissolve the formazan crystals formed by the intracellular reduction of MTT. The absorbance was measured at a dual wavelength of 570/690 nm using a Multiskan SkyHigh microplate reader (Thermo Fisher Scientific). The percentage of viable cells was calculated and the concentration of each peptide able to inhibit 50% of cell viability (IC50) was determined. The experiments were carried out in three independent assays, and the results are shown as mean ± standard deviation (SD).

[4] = system: NO production in LPS-stimulated RAW 264.7 cells; assay: Griess assay (nitric oxide production) in LPS-stimulated macrophages; assay type: cell-based, murine; details: at 10 µg/mL
Source text: The Griess assay is a classical indirect method to measure the production of nitric oxide through the quantification of nitrite anions. As previously mentioned, NO is an inflammatory biomarker that can be produced when LPS-activated macrophages produce proinflammatory mediators and cytokines, which in turn elicit the production of reactive species like ROS and the expression/activity of relevant enzymes, including the nitric oxide synthase (NOS).
The Nitrite Assay Kit (Griess Reagent, Sigma-Aldrich) was used to determine the influence of peptide treatments on nitric oxide production by RAW 264.7 cells activated by LPS (1 µg/mL). To this end, peptide solutions at different concentrations (50–3.12 µg/mL—serial dilution) in an FBS-free medium were used. Briefly, 7 × 10^4 RAW 264.7 cells per well were seeded in a 96-well plate and incubated for 24 h (5% CO2, 37 °C). On the next day, the medium was removed and replaced with different concentrations of the peptides. After another 24 h incubation period (5% CO2, 37 °C), 50 µL of culture supernatant was transferred to a 96-well plate. […] The absorbance was measured at 540 nm using a microplate reader (Multiskan SkyHigh, Thermo Scientific) A nitrite standard curve was plotted with nitrite standards at 0, 2, 4, 8, and 10 nmol/well, and the absorbances of each sample were compared to the standard curve. […]

[5] = FRAP (ferric reducing antioxidant power) assay
Experimental: The antioxidant power of a given compound is not limited to its radical-scavenging activity. In fact, the ferric reducing antioxidant power (FRAP) assay, is a well-established test to measure a compound’s ability to act as a reductant in a colorimetric redox reaction, where ferric (Fe^3+) ions are reduced to the ferrous (Fe^2+) state in the acidic medium.
The ferric-reducing antioxidant power (FRAP) was determined using a FRAP kit (Sigma-Aldrich) with minor modifications to the manufacturer’s instructions. Briefly, in a 96-well plate, 5 µL of peptides’ aqueous solutions at different concentrations (50–0.05 µg/mL) was added per well. Then, 95 µL of the reaction cocktail (FRAP assay buffer, FeCl3 solution, and FRAP probe) was added to each well. The absorbance was measured at 594 nm in kinetic mode (Multiskan SkyHigh, Thermo Fisher Scientific) for 60 min, at 37 °C. A ferrous standard curve was plotted with Ferrous ammonium sulfate at 0, 4, 8, 12, 16, and 20 nmol/well, and the absorbances of each sample were compared to the standard curve. Quercetin (100–0.1 µg/mL in ethanol) was used as a positive control. All measurements were performed in three independent experiments. Data are shown as mean ± SD.

[6] = molecular target: ACE-1 enzyme (Homo sapiens, UniProt P12821); assay: ACE-1 inhibition assay (colorimetric kit)
Chain of ACE-1 enzyme (P12821 30-1306): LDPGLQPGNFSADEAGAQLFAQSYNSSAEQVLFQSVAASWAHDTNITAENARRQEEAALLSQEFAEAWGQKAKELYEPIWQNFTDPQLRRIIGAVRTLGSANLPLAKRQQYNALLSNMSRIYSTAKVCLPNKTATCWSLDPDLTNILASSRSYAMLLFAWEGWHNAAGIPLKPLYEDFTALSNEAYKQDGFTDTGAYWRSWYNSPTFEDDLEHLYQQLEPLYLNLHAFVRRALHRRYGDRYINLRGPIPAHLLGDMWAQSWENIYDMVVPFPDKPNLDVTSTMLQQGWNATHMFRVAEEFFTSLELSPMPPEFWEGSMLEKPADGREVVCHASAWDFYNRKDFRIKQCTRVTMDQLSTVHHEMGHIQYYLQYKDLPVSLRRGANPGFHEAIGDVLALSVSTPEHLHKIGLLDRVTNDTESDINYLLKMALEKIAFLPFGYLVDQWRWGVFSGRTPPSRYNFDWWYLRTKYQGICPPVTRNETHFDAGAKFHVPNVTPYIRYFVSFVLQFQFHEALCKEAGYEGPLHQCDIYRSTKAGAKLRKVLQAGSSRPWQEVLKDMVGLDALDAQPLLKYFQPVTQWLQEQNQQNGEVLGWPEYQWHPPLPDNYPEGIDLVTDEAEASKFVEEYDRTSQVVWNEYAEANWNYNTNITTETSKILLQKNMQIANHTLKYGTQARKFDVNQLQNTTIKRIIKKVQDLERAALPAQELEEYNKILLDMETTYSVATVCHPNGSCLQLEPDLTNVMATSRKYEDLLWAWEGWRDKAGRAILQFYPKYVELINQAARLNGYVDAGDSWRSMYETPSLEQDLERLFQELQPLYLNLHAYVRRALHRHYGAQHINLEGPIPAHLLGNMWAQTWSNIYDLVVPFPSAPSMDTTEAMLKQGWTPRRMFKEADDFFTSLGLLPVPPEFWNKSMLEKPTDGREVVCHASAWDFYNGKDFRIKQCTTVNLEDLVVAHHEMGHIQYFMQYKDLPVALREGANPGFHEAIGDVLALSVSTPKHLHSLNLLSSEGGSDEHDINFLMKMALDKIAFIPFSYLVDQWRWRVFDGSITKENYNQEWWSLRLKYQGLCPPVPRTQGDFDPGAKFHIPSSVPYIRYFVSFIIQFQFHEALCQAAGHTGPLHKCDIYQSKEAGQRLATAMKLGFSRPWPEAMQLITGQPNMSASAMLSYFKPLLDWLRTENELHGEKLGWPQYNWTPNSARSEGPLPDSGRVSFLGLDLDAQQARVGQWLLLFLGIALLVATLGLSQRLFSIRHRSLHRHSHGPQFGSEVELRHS
Experimental: Therefore, the ability of the LF-derived peptides to inhibit ACE-1 was evaluated.
The activity of the ACE-1 enzyme was measured using a colorimetric ACE-1 Inhibitor Screening Kit (Abcam) with minor modifications to the manufacturer’s instructions. Briefly, in a 96-well plate, 12.5 µL of peptide’s aqueous solutions at different concentrations (100–0.1 µg/mL) were added per well. Then, 20 µL of diluted ACE-1 enzyme solution was added to each well. The total volume of each well was adjusted to 100 µL and the plate was incubated at 37 °C for 15 min. After the incubation period, 25 µL of the reaction mixture (substrate mixture and ACE-1 assay buffer) were added to the samples, and the absorbance was read in kinetic mode at 345 nm for 60 min at 37 °C (Multiskan SkyHigh, Thermo Scientific). Captopril (22 ng/mL) was used as the positive control. The reaction inhibition percentage was calculated and the IC50 was determined (GraphPad Prism 9.4.0, GraphPad Software). The experiments were carried out in three independent assays and the results are expressed as mean ± SD.

[7] = system: spontaneously hypertensive rats; design: method as in PMID 16830788; details: cited from earlier work
[8] = system: ACE-1; details: cited from earlier work

IC50 at 24 h [3]: 65 ± 2 µg/mL (≈ 215 µM)
Compound: O=c1c(O)c(-c2ccc(O)c(O)c2)oc2cc(O)cc(O)c12 [Quercetin]
DPPH Radical Scavenging Activity (RIC50 mol/mol DPPH) [1]: 0.09 ± 0.02 mol/mol DPPH
reduction of O2•− production compared to the control (LPS +) [2]: about 25%
NO levels in LPS-activated cells [4]: significantly reduce NO levels
FRAP (mM Ferrous Equivalents) ([5]; 0.05 µg/mL): 0.85 ± 0.25 mM Ferrous Equivalents
FRAP (mM Ferrous Equivalents) ([5]; 0.5 µg/mL): 1.40 ± 0.23 mM Ferrous Equivalents
FRAP (mM Ferrous Equivalents) ([5]; 5 µg/mL): 8.02 ± 0.57 mM Ferrous Equivalents
FRAP (mM Ferrous Equivalents) ([5]; 50 µg/mL): 16.09 ± 0.87 mM Ferrous Equivalents

IC50 [3]: 135 ± 6 µg/mL (≈ 67.7 µM)
IC50 [6]: 31.6 µM
Compound: CSCC[C@H](NC(=O)[C@H](CCCNC(=N)N)NC(=O)[C@H](Cc1c[nH]c2ccccc12)NC(=O)[C@H](CCC(N)=O)NC(=O)[C@H](Cc1c[nH]c2ccccc12)NC(=O)[C@H](CCCNC(=N)N)NC(=O)[C@H](CCCNC(=N)N)NC(=O)[C@H](CS)NC(=O)[C@H](CCCCN)NC(=O)[C@@H](N)Cc1ccccc1)C(=O)N[C@@H](CCCCN)C(=O)N[C@@H](CCCCN)C(=O)N[C@@H](CC(C)C)C(=O)NCC(=O)N[C@@H](C)C(N)=O [bLF-17-31, FKCRRWQWRMKKLGA-NH2]

IC50 [6]: 31.2 µM
Compound: AKCAKFQRNMKKVRG-NH2 [aLF-17-31, AKCAKFQRNMKKVRG-NH2]

IC50 at 24 h [3]: 290 ± 5 µg/mL
Compound: APRKNVRWCTI-NH2 [bLF-1-11, APRKNVRWCTI-NH2]

IC50 at 24 h [3]: 355 ± 12 µg/mL
IC50 [6]: 57.5 µM
Compound: GRRRRSVQWCA-NH2 [rhLF-1-11, GRRRRSVQWCA-NH2]

Compound: LRPVAA
blood pressure [7]: reducing blood pressure
ACE-1 inhibition in vitro [8]: effective in inhibiting ACE-1 in vitro

Compound: WKLLSKAQEKFGKNKSR-NH2 [bLF-268-284, WKLLSKAQEKFGKNKSR-NH2]
IC50 [6]: > 48.8 µM

IC50 [6]: 25.6 µM
Compound: WNLLRQAQEKFGKDKSP-NH2 [nhLF-268-284, WNLLRQAQEKFGKDKSP-NH2]

From article PMC11816975, “Bioactive Peptides from Milk Proteins with Antioxidant, Anti-Inflammatory, and Antihypertensive Activities” (Foods, 2025)
